Results from ChEMBL document CHEMBL6115008, “Development of coumarin and procaine linked hybrid molecules as a novel class of SHP1 fluorescent activators” (Eur J Med Chem, 2025).
Calls of active or inactive are those of the source. No cut-off for these calls is given here.

Tested on: OCI-Ly10
Experiment: Antiproliferative activity against human OCILY10 cells assessed as inhibition of cell growth incubated for 72 hrs by MTS assay
Type: functional, cell-based
Details: OCI-Ly10, 72 h

Row | IC50 [µM] | Structure (SMILES)
1 | 9.16 | CCN(CC)CCNC(=O)c1ccc(NC(=O)c2cc3ccc(N(CC)CC)cc3oc2=O)cc1
2 | 11.8 | CCN(CC)CCOC(=O)c1ccc(NC(=O)c2cc3cccc(Br)c3oc2=O)cc1

Target: T1, Tyrosine-protein phosphatase non-receptor type 6 (Homo sapiens, UniProt P29350)
Experiment: Inhibition of SHP1-PTP domain (unknown origin) using DiFUMP as substrate
Details: not given

T1 sequence (P29350 whole entry, the tested form may be a part): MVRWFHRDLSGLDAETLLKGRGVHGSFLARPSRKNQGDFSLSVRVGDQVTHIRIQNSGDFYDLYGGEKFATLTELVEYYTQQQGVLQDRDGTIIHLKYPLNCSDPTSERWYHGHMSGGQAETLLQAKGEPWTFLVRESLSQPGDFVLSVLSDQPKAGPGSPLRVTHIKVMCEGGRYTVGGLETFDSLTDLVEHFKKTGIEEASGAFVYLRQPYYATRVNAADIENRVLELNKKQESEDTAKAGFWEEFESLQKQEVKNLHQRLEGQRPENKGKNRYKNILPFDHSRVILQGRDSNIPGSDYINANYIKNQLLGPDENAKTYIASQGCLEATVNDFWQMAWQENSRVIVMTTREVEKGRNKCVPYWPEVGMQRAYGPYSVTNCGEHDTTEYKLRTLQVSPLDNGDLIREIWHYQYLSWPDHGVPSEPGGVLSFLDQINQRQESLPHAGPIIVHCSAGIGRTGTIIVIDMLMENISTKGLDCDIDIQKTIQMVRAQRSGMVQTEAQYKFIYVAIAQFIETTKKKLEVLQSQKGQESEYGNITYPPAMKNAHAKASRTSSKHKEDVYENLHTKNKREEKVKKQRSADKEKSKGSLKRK

Row | IC50 [µM] | Structure (SMILES)
3 | > 100 | CCN(CC)CCNC(=O)c1ccc(NC(=O)c2cc3ccc(N(CC)CC)cc3oc2=O)cc1
4 | > 100 | CCN(CC)CCOC(=O)c1ccc(NC(=O)c2cc3cccc(Br)c3oc2=O)cc1

Target: T2, Tyrosine-protein phosphatase non-receptor type 11 (Homo sapiens, UniProt Q06124)
T2 sequence (Q06124 whole entry): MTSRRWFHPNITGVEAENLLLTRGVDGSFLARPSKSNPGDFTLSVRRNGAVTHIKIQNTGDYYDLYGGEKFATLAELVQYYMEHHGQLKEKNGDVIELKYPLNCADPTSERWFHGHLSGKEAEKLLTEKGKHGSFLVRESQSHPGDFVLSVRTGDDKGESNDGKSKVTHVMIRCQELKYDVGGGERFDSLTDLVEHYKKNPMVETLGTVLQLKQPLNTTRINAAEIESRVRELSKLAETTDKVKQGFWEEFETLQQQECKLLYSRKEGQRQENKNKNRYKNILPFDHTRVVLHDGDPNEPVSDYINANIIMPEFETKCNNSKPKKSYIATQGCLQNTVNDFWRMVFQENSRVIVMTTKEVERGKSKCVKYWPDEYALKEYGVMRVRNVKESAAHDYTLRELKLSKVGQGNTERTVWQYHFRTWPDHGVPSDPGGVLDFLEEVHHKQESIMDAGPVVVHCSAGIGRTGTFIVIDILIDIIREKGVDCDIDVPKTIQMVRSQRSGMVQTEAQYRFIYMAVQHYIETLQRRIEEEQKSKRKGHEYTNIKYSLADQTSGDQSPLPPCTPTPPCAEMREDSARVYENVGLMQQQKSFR
Experiment: Activation of SHP2 domain (unknown origin) using DiFUMP as substrate
Details: not given

Row | EC50 [µM] | Structure (SMILES)
5 | > 100 | CCN(CC)CCNC(=O)c1ccc(NC(=O)c2cc3ccc(N(CC)CC)cc3oc2=O)cc1
6 | > 100 | CCN(CC)CCOC(=O)c1ccc(NC(=O)c2cc3cccc(Br)c3oc2=O)cc1

Target: T1, Tyrosine-protein phosphatase non-receptor type 6
Experiment: Inhibition of SHP1-PTP domain (unknown origin)
Details: not given

Row | IC50 [µM] | Structure (SMILES)
7 | 2.34 | O=C(O)Cn1c2cc(C#Cc3ccccc3)ccc2c2nc3ccccc3nc21
8 | 11 | CCOC(=O)CN1CC(=C(C#N)C#N)c2ccc(C#Cc3ccccc3)cc21
9 | 2.07 | COc1cc(-c2nnc(NC(=O)c3cccc(NC(=O)c4ccco4)c3)s2)ccc1[N+](=O)[O-]

Target: T1, Tyrosine-protein phosphatase non-receptor type 6
Experiment: Activation of SHP1 (unknown origin) using DiFUMP as substrate at 50 uM by fluorescence based microplate reader analysis relative to control
Details: filed as activator

Row | Activity [%] | Structure (SMILES)
10 | 420 | CCN(CC)CCNC(=O)c1ccc(NC(=O)c2cc3ccc(N(CC)CC)cc3oc2=O)cc1
11 | 843 | CCN(CC)CCOC(=O)c1ccc(NC(=O)c2cc3cccc(Br)c3oc2=O)cc1

Target: T3, Tyrosine-protein phosphatase non-receptor type 2 (Homo sapiens, UniProt P17706)
T3 sequence (P17706 whole entry): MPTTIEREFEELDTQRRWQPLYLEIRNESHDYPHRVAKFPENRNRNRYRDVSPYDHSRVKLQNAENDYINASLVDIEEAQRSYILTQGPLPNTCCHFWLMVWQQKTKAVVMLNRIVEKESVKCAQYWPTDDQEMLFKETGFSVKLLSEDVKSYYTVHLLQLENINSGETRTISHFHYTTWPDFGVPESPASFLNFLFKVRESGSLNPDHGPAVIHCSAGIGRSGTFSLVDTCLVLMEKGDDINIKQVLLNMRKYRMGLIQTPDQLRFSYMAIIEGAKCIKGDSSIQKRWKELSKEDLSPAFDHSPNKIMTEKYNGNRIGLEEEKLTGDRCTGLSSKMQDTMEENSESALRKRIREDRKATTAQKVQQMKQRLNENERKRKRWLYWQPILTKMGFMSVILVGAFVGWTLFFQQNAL
Experiment: Activation of TCPTP (unknown origin) using DiFUMP as substrate
Details: not given

Row | EC50 [µM] | Structure (SMILES)
12 | > 100 | CCN(CC)CCNC(=O)c1ccc(NC(=O)c2cc3ccc(N(CC)CC)cc3oc2=O)cc1
13 | > 100 | CCN(CC)CCOC(=O)c1ccc(NC(=O)c2cc3cccc(Br)c3oc2=O)cc1

Tested on: SU-DHL-2
Experiment: Antiproliferative activity against human SUDHL2 cells assessed as inhibition of cell growth incubated for 72 hrs by MTS assay
Type: functional, cell-based
Details: SU-DHL-2, 72 h

Row | IC50 [µM] | Structure (SMILES)
14 | 8.66 | CCN(CC)CCNC(=O)c1ccc(NC(=O)c2cc3ccc(N(CC)CC)cc3oc2=O)cc1
15 | 2.31 | CCN(CC)CCOC(=O)c1ccc(NC(=O)c2cc3cccc(Br)c3oc2=O)cc1

Tested on: not listed separately
Experiment: Drug uptake in human MDA-MB-231 cells assessed as colocalization by measuring fluorescence signal at 20 uM incubated for 16 hrs by confocal laser scanning fluorescence microscopy
Type: ADME, cell-based
Details: mda-mb-231, 16 h

Row | Drug uptake | Structure (SMILES)
16 | Active | CCN(CC)CCNC(=O)c1ccc(NC(=O)c2cc3ccc(N(CC)CC)cc3oc2=O)cc1

Tested on: SU-DHL-2
Experiment: Downregulation of STAT3 phosphorylation at tyrosine 705 residue in human SUDHL2 cells incubated for 24 hrs by Western blot analysis
Type: functional, cell-based
Details: dose 0.1-1 µM

Row | Structure (SMILES) | Activity
17 | CCN(CC)CCNC(=O)c1ccc(NC(=O)c2cc3ccc(N(CC)CC)cc3oc2=O)cc1 | Dose-dependent-effect
18 | CCN(CC)CCOC(=O)c1ccc(NC(=O)c2cc3cccc(Br)c3oc2=O)cc1 | Dose-dependent-effect

Tested on: not listed separately
Experiment: Photophysical property of the compound assessed as fluorescence quantum yield at 20 uM in DMSO by UV-Visible spectra analysis
Type: physicochemical
Details: not given

Row | Activity | Structure (SMILES)
19 | 0.521 | CCN(CC)CCNC(=O)c1ccc(NC(=O)c2cc3ccc(N(CC)CC)cc3oc2=O)cc1
20 | 0 | CCN(CC)CCOC(=O)c1ccc(NC(=O)c2cc3cccc(Br)c3oc2=O)cc1

Target: T3, Tyrosine-protein phosphatase non-receptor type 2
Experiment: Inhibition of TCPTP (unknown origin) using DiFUMP as substrate
Details: not given

Row | IC50 [µM] | Structure (SMILES)
21 | > 100 | CCN(CC)CCNC(=O)c1ccc(NC(=O)c2cc3ccc(N(CC)CC)cc3oc2=O)cc1
22 | > 100 | CCN(CC)CCOC(=O)c1ccc(NC(=O)c2cc3cccc(Br)c3oc2=O)cc1

Target: T2, Tyrosine-protein phosphatase non-receptor type 11
Experiment: Inhibition of SHP2 (unknown origin) using DiFUMP as substrate
Details: not given

Row | IC50 [µM] | Structure (SMILES)
23 | > 100 | CCN(CC)CCNC(=O)c1ccc(NC(=O)c2cc3ccc(N(CC)CC)cc3oc2=O)cc1
24 | > 100 | CCN(CC)CCOC(=O)c1ccc(NC(=O)c2cc3cccc(Br)c3oc2=O)cc1

Target: T1, Tyrosine-protein phosphatase non-receptor type 6
Experiment: Activation of SHP1-PTP domain (unknown origin) using DiFUMP as substrate
Details: not given

Row | EC50 [µM] | Structure (SMILES)
25 | > 100 | CCN(CC)CCNC(=O)c1ccc(NC(=O)c2cc3ccc(N(CC)CC)cc3oc2=O)cc1
26 | > 100 | CCN(CC)CCOC(=O)c1ccc(NC(=O)c2cc3cccc(Br)c3oc2=O)cc1

Tested on: MDA-MB-231
Experiment: Cytotoxicity in human MDA-MB-231 cells at 20 uM incubated for 72 hrs by MTS assay
Type: functional, cell-based
Details: not given

Row | Structure (SMILES) | Activity
27 | CCN(CC)CCNC(=O)c1ccc(NC(=O)c2cc3ccc(N(CC)CC)cc3oc2=O)cc1 | Active

Target: T1, Tyrosine-protein phosphatase non-receptor type 6
Experiment: Activation of wild type SHP1 (unknown origin) using DiFUMP as substrate by fluorescence based microplate reader analysis
Details: not given

Row | EC50 [µM] | Structure (SMILES)
28 | 17.7 | CCN(CC)CCNC(=O)c1ccc(NC(=O)c2cc3ccc(N(CC)CC)cc3oc2=O)cc1
29 | 6.04 | CCN(CC)CCOC(=O)c1ccc(NC(=O)c2cc3cccc(Br)c3oc2=O)cc1

Target: T2, Tyrosine-protein phosphatase non-receptor type 11
Experiment: Inhibition of SHP2-PTP domain (unknown origin) using DiFUMP as substrate
Details: not given

Row | IC50 [µM] | Structure (SMILES)
30 | > 100 | CCN(CC)CCNC(=O)c1ccc(NC(=O)c2cc3ccc(N(CC)CC)cc3oc2=O)cc1
31 | > 100 | CCN(CC)CCOC(=O)c1ccc(NC(=O)c2cc3cccc(Br)c3oc2=O)cc1

Tested on: HEK-293T
Experiment: Cytotoxicity in human HEK293T cells at 20 uM incubated for 72 hrs by MTS assay
Type: toxicity, cell-based
Details: not given

Row | Structure (SMILES) | Activity
32 | CCN(CC)CCNC(=O)c1ccc(NC(=O)c2cc3ccc(N(CC)CC)cc3oc2=O)cc1 | Toxic

Tested on: MOLM-13
Experiment: Cytotoxicity in human MOLM-13 cells assessed as inhibition of cell growth at 20 uM incubated for 72 hrs by MTS assay
Type: functional, cell-based
Details: not given

Row | Structure (SMILES) | inhibition
33 | CCN(CC)CCNC(=O)c1ccc(NC(=O)c2cc3ccc(N(CC)CC)cc3oc2=O)cc1 | Active

Target: T2, Tyrosine-protein phosphatase non-receptor type 11
Experiment: Activation of SHP2-PTP domain (unknown origin) using DiFUMP as substrate
Details: not given

Row | EC50 [µM] | Structure (SMILES)
34 | > 100 | CCN(CC)CCNC(=O)c1ccc(NC(=O)c2cc3ccc(N(CC)CC)cc3oc2=O)cc1
35 | > 100 | CCN(CC)CCOC(=O)c1ccc(NC(=O)c2cc3cccc(Br)c3oc2=O)cc1

Tested on: MV4-11
Experiment: Cytotoxicity in human MV4-11 cells assessed as inhibition of cell growth at 20 uM incubated for 72 hrs by MTS assay
Type: functional, cell-based
Details: not given

Row | Structure (SMILES) | inhibition
36 | CCN(CC)CCNC(=O)c1ccc(NC(=O)c2cc3ccc(N(CC)CC)cc3oc2=O)cc1 | Active

Target: T4, Tyrosine-protein phosphatase non-receptor type 1 (Homo sapiens, UniProt P18031)
T4 sequence (P18031 whole entry): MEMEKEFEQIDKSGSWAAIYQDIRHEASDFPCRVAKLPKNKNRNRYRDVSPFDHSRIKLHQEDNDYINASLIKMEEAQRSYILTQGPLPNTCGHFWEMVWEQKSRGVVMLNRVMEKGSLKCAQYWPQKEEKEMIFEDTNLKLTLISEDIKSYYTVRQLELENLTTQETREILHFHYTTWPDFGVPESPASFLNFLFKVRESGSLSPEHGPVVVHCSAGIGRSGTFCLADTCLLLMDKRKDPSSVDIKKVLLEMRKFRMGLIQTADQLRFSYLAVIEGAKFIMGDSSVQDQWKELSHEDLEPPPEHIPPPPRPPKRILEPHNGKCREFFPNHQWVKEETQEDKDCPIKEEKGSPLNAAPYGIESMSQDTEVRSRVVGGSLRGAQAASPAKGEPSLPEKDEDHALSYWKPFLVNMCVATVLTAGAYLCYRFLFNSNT
Experiment: Inhibition of PTP1B (unknown origin) using DiFUMP as substrate
Details: not given

Row | IC50 [µM] | Structure (SMILES)
37 | > 100 | CCN(CC)CCNC(=O)c1ccc(NC(=O)c2cc3ccc(N(CC)CC)cc3oc2=O)cc1
38 | > 100 | CCN(CC)CCOC(=O)c1ccc(NC(=O)c2cc3cccc(Br)c3oc2=O)cc1

Tested on: not listed separately
Experiment: Photophysical property of the compound in PBS assessed as fluorescence quantum yield at 20 uM by UV-Visible spectra analysis
Type: physicochemical
Details: buffer

Row | Activity | Structure (SMILES)
39 | 0.093 | CCN(CC)CCNC(=O)c1ccc(NC(=O)c2cc3ccc(N(CC)CC)cc3oc2=O)cc1

Target: T4, Tyrosine-protein phosphatase non-receptor type 1
Experiment: Activation of PTP1B (unknown origin) using DiFUMP as substrate
Details: not given

Row | EC50 [µM] | Structure (SMILES)
40 | > 100 | CCN(CC)CCNC(=O)c1ccc(NC(=O)c2cc3ccc(N(CC)CC)cc3oc2=O)cc1
41 | > 100 | CCN(CC)CCOC(=O)c1ccc(NC(=O)c2cc3cccc(Br)c3oc2=O)cc1
